Measured values taken from patent US20070043104A1, “UII-modulating compounds and their use” (priority 2005, published 2007).
Counter-ions that a name gives are not always drawn. Like-named read-outs stand apart in the source and are kept apart here.

Target: T1, human urotensin II receptor (Homo sapiens, UniProt Q9UKP6)
T1 construct: expressed in transfected cells; host or cells: NIH3T3 cells
T1 sequence (Q9UKP6 1-389): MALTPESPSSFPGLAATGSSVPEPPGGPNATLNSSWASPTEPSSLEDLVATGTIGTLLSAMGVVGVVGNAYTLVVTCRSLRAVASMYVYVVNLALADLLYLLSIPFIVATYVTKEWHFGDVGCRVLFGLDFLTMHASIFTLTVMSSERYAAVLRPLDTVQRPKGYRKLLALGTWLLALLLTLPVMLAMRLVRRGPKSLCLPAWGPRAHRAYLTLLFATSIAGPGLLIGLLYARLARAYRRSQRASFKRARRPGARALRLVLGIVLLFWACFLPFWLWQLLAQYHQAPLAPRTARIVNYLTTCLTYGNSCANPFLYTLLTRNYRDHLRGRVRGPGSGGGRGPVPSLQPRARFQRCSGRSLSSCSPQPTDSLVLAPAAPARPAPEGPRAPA
Assay: Receptor Selection and Amplification (R-SAT) functional assay, NIH3T3 cells transfected with human urotensin II receptor and β-galactosidase marker
Format: cell-based
Settings: for pEC50 / EC50: eight doses in triplicate
Procedure: The functional receptor assay, Receptor Selection and Amplification Technology (R-SAT™), was used (with minor modifications from the procedure described previously (Brann, M. R. U.S. Pat. No. 5,707,798, 1998; Chem. Abstr. 1998, 128, 111548) to screen compounds for efficacy at the UII receptor. The RSAT assay was conducted as described herein.
Briefly, NIH3T3 cells were grown in tissue culture treated rollerbottles to 40-80% confluence in Dulbecco's modified Eagle's medium (DMEM) supplemented with 10% bovine calf serum (Hyclone) and 1% penicillin/streptomycin/glutamine (Invitrogen). Cells were transfected for 12-18 hours with the human urotensin II receptor and the β-galactosidase marker. After transfection, the cells were trypsinized, harvested and frozen in DMEM containing 10% DMSO. Frozen cells were later thawed and tested for a response to a control compound to perform quality control before initiation of pharmacological testing, ensuring the correct pharmacological response and sufficient sensitivity. To initiate the pharmacological assay, cells were thawed rapidly and prepared in DMEM media containing 0.4% calf serum (Hyclone), 30% UltraCulture (Biowhittaker), and 1% penicillin/streptomycin/glutamine (Invitrogen), and then plated at 10,000-40,000 cells per well of a 96½ area plate that contained either the test compounds or reference ligands. Cells were then grown in a humidified atmosphere with 5% ambient CO2 for five days. Media was then removed from the plates and marker gene activity was measured by the addition of the beta-galactosidase substrate ONPG (in PBS with 5% NP-40). The resulting colorimetric reaction was measured in a spectrophotometric plate reader (Titertek Inc.) at […].
pEC50 represents the negative logarithm of the concentration of ligand that caused 50% activation of the basal receptor response. Percent activation was calculated as the difference between the absorbance measurements in the absence of added ligand compared with that in the presence of saturating concentrations of ligand normalized to the absorbance difference for the reference ligand, which was assigned a value of 100%.
Results were determined in R-SAT assays and are expressed as pEC50, the negative of the log EC50 in molarity. Results are the average±standard deviation of 2-X determinations of the EC50 where each compound was tested in eight doses in triplicate.

[1] = NIH3T3, Table 3, percent activation normalized to the reference ligand assigned 100%, read-out: Efficacy
[2] = Table 3, negative of the log EC50 in molarity, average ± standard deviation (or range) of determinations
[3] = NIH3T3, Table 4, % efficacy normalized to UII at 100%
[4] = Table 4, negative of the log EC50 in molarity, average ± standard deviation of 2-5 determinations

| SMILES | Emax [1] [%] | pEC50 [2] | EC50 [2] [nM] | Emax [3] [%] | EC50 [4] [nM] |
| --- | --- | --- | --- | --- | --- |
| Cc1cc(C)c(C(=O)NC(CCN(C)C)c2ccc(Cl)cc2)cc1C.O=C(O)C(=O)O (stereo not shown) [5m, N-[1-(4-Chlorophenyl)-3-dimethylaminopropyl]-2,4,5-trimethyl-benzamide oxalate] | 152 ± 20 | 5.75 ± 0.22 | – | – | – |
| CN(C)CCC(NC(=O)c1ccc2ccccc2c1)c1ccc(Cl)cc1 (stereo not shown) [5n, N-[1-(4-Chlorophenyl)-3-dimethylamino-propyl]-2-naphthyl-carboxamide oxalate] | 109 ± 18 | – | 407 | – | – |
| CN(C)CCC(NC(=O)c1ccc(-c2ccccc2)cc1)c1ccc(Cl)cc1.O=C(O)C(=O)O (stereo not shown) [5o, N-[1-(4-Chlorophenyl)-3-dimethylamino-propyl]-4-phenyl-benzamide oxalate] | 116 ± 11 | 7.11 ± 0.01 | – | – | – |
| CN(C)CCC(NC(=O)c1ccc(Oc2ccccc2)cc1)c1ccc(Cl)cc1.O=C(O)C(=O)O (stereo not shown) [5p, N-[1-(4-Chlorophenyl)-3-dimethylaminopropyl]-4-phenoxy-benzamide oxalate] | 91 ± 17 | 7.18 ± 0.2 | – | – | – |
| CN(C)CCC(NC(=O)c1ccc(C(F)(F)F)cc1)c1ccc(Cl)cc1 (stereo not shown) [5q, N-[1-(4-Chlorophenyl)-3-dimethylaminopropyl]-4-trifluoromethyl-benzamide oxalate] | 100 to 127 | – | 66.1 to 102 | – | – |
| CN(C)CCC(NC(=O)Cc1ccccc1)c1ccc(Cl)cc1.O=C(O)C(=O)O (stereo not shown) [5r, N-[1-(4-Chlorophenyl)-3-dimethylaminopropyl]-2-phenyl-acetamide oxalate] | 154 ± 34 | 5.71 ± 0.16 | – | – | – |
| Cc1ccc(S(=O)(=O)NC(CCN(C)C)c2ccc(Cl)cc2)cc1.O=C(O)C(=O)O (stereo not shown) [6a, N-[1-(4-Chlorophenyl)-3-dimethylaminopropyl]-4-methyl-benzenesulfonamide oxalate] | 74 ± 10 | 5.19 ± 0.09 | – | – | – |
| Cc1ccccc1NC(=O)OC(CCN(C)C)c1ccc(Cl)cc1 (stereo not shown) [7a, N-[1-(4-Chlorophenyl)-3-dimethylaminopropyloxycarbonyl]-2-methylphenyl-amine] | 170 ± 21 | 5.41 ± 0.07 | – | – | – |
| COc1cccc(NC(=O)OC(CCN(C)C)c2ccc(Cl)cc2)c1 (stereo not shown) [7b, N-[1-(4-Chlorophenyl)-3-dimethylaminopropyloxycarbonyl]-3-methoxyphenyl-amine] | 133 ± 36 | 5.95 ± 0.09 | – | – | – |
| CN(C)CCC(OC(=O)Nc1ccc(C(C)(C)C)cc1)c1ccc(Cl)cc1 (stereo not shown) [7c, N-[1-(4-Chlorophenyl)-3-dimethylaminopropyloxycarbonyl]-4-tert-butylphenyl-amine] | 105 ± 8 | – | 1780 | – | – |
| CN(C)CCC(OC(=O)Nc1ccc(Oc2ccccc2)cc1)c1ccc(Cl)cc1 (stereo not shown) [7d, N-[1-(4-Chlorophenyl)-3-dimethylaminopropyloxycarbonyl]-4-phenoxyphenyl-amine] | 96 | – | 126 | – | – |
| CN(C)CCC(OC(=O)NCc1ccccc1)c1ccc(Cl)cc1 (stereo not shown) [7e, N-[1-(4-Chlorophenyl)-3-dimethylaminopropyloxycarbonyl]-benzyl-amine] | 180 ± 8 | 5.67 ± 0.11 | – | – | – |
| CN(C)CCC(OC(=O)Nc1ccc2ccccc2c1)c1ccc(Cl)cc1 (stereo not shown) [7g, N-[1-(4-Chlorophenyl)-3-dimethylaminopropyloxycarbonyl]-2-naphthyl-amine] | 74 to 107 | – | 263 to 759 | – | – |
| COc1ccc(NC(=O)OC(CCN(C)C)c2ccc(Cl)cc2)cc1 (stereo not shown) [7h, N-[1-(4-Chlorophenyl)-3-dimethylaminopropyloxycarbonyl]-4-methoxyphenyl-amine] | 130 to 223 | – | 955 to 2450 | – | – |
| CN(C)CCC(OC(=O)Nc1ccc(C(F)(F)F)cc1)c1ccc(Cl)cc1 (stereo not shown) [7i, N-[1-(4-Chlorophenyl)-3-dimethylaminopropyloxycarbonyl]-4-trifluoromethylphenyl-amine] | 70 to 114 | – | 178 to 309 | – | – |
| Cc1ccccc1NC(=O)NC(CCN(C)C)c1ccc(Cl)cc1 (stereo not shown) [8a, 1-[1-(4-Chlorophenyl)-3-dimethylaminopropyl]-3-(2-methylphenyl)-carbamide oxalate] | 166 ± 24 | 5.64 ± 0.15 | – | – | – |

| SMILES | Emax [1] [%] | pEC50 [2] | EC50 [2] [nM] | Emax [3] [%] | EC50 [4] [nM] |
| --- | --- | --- | --- | --- | --- |
| COc1cccc(NC(=O)NC(CCN(C)C)c2ccc(Cl)cc2)c1 (stereo not shown) [8b, 1-[1-(4-Chlorophenyl)-3-dimethylaminopropyl]-3-(3-methoxyphenyl)-carbamide oxalate] | 147 ± 26 | 5.87 ± 0.17 | – | – | – |
| CN(C)CCC(NC(=O)Nc1ccc(C(C)(C)C)cc1)c1ccc(Cl)cc1 (stereo not shown) [8c, 1-[1-(4-Chlorophenyl)-3-dimethylaminopropyl]-3-(4-tert-butylphenyl)-carbamide oxalate] | 101 ± 36 | – | 186 | – | – |
| CN(C)CCC(NC(=O)Nc1ccc(Oc2ccccc2)cc1)c1ccc(Cl)cc1 (stereo not shown) [8d, 1-[1-(4-Chlorophenyl)-3-dimethylaminopropyl]-3-(4-phenoxyphenyl)-carbamide oxalate oxalate] | 102 to 119 | – | 63.1 to 145 | – | – |
| CN(C)CCC(NC(=O)NCc1ccccc1)c1ccc(Cl)cc1 (stereo not shown) [8e, 1-[1-(4-Chlorophenyl)-3-dimethylaminopropyl]-3-benzyl-carbamide oxalate] | 166 to 193 | – | 1780 to 2290 | – | – |
| CN(C)CCC(NC(=O)Nc1ccc(-c2ccccc2)cc1)c1ccc(Cl)cc1 (stereo not shown) [8f, 1-[1-(4-Chlorophenyl)-3-dimethylaminopropyl]-3-(4-phenylphenyl)-carbamide oxalate] | 75 to 111 | – | 110 to 178 | – | – |
| CN(C)CCC(NC(=O)Nc1ccc2ccccc2c1)c1ccc(Cl)cc1 (stereo not shown) [8g, 1-[1-(4-Chlorophenyl)-3-dimethylaminopropyl]-3-(2-naphthyl)-carbamide oxalate] | 89 to 129 | – | 229 to 380 | – | – |
| COc1ccc(NC(=O)NC(CCN(C)C)c2ccc(Cl)cc2)cc1 (stereo not shown) [8h, 1-[1-(4-Chlorophenyl)-3-dimethylaminopropyl]-3-(4-methoxyphenyl)-carbamide oxalate] | 176 to 231 | – | 1820 to 2340 | – | – |
| CN(C)CCC(NC(=O)Nc1ccc(C(F)(F)F)cc1)c1ccc(Cl)cc1 (stereo not shown) [8i, 1-[1-(4-Chlorophenyl)-3-dimethylaminopropyl]-3-(4-trifluoromethylphenyl)-carbamide oxalate] | 93 to 120 | – | 97.7 to 155 | – | – |
| CN(C)CCC(NC(=O)Cc1ccccc1)c1ccc(Cl)cc1 (stereo not shown) [A1, N-[1-(4-Chlorophenyl)-3-dimethylamino-propyl]-2-phenylacetamide HCl] | – | – | – | 76 ± 5 | 1860 |
| CN(C)CCC(NC(=O)Cc1ccc(C(F)(F)F)cc1)c1ccc(Cl)cc1 (stereo not shown) [A2, N-[1-(4-Chlorophenyl)-3-dimethylamino-propyl]-2-(4-trifluoromethylphenyl)acetamide HCl] | – | – | – | 53 ± 7 | 871 |
| COc1ccc(CC(=O)NC(CCN(C)C)c2ccc(Cl)cc2)cc1 (stereo not shown) [A3, N-[1-(4-Chlorophenyl)-3-dimethylamino-propyl]-2-(4-methoxyphenyl)acetamide HCl] | – | – | – | 65 ± 18 | 1510 |
| CN(C)CCC(NC(=O)CCc1ccccc1)c1ccc(Cl)cc1 (stereo not shown) [A4, N-[1-(4-Chlorophenyl)-3-dimethylamino-propyl]-3-phenyl-propionamide HCl] | – | – | – | 139 ± 5 | 1660 |
| CN(C)CCC(NC(=O)CCc1ccc(C(F)(F)F)cc1)c1ccc(Cl)cc1 (stereo not shown) [A5, N-[1-(4-Chlorophenyl)-3-dimethylamino-propyl]-3-(4-trifluoromethylphenyl) propionamide HCl] | – | – | – | 73 ± 10 | 1120 |
| COc1ccc(CCC(=O)NC(CCN(C)C)c2ccc(Cl)cc2)cc1 (stereo not shown) [A6, N-[1-(4-Chlorophenyl)-3-dimethylamino-propyl]-3-(4-methoxyphenyl)propanamide HCl] | – | – | – | 101 ± 12 | 2950 |
| CN(C)CCC(NC(=O)/C=C/c1ccccc1)c1ccc(Cl)cc1 (stereo not shown) [A7, N-[1-(4-Chlorophenyl)-3-dimethylamino-propyl]-3-cinnamic amide HCl] | – | – | – | 128 ± 10 | 427 |
| CN(C)CCC(NC(=O)C=Cc1ccc(C(F)(F)F)cc1)c1ccc(Cl)cc1 (stereo not shown) [A8, N-[1-(4-Chlorophenyl)-3-dimethylamino-propyl]-4-trifluoromethyl-cinnamic amide HCl] | – | – | – | 133 ± 3 | 129 |
